Paper PMC12106329, “Chronic alcohol intake disrupts cytochrome P450 enzyme activity in alcoholic fatty liver disease: insights into metabolic alterations and therapeutic targets” (Frontiers in Chemistry, 2025)
“And” between values parts separate entries of the source, which are not always exact repeats. Equal values may be shown once. Read-outs that look alike come from different tables or passages of the source.

Key:
[1] = AM group, oral ethanol 12 weeks; vs NC and SC groups
Procedure: (§1) Sixty healthy male Sprague-Dawley rats (SD-2024-RAT-045, Beijing Vital River Laboratory Animal Technology Co., Ltd., Beijing, China) weighing 200–250 g were selected. The animals were housed under a 12-h light/dark cycle at a constant laboratory temperature of 22°C ± 2°C and relative humidity of 50% ± 10%, with access to ample food and water. Sixty rats were randomly assigned to four groups (fifteen rats per group): the normal control group (NC group), the sucrose solution group (SC group), the ethanol intake group (AM group), and the ethanol intake group with simultaneous overexpression of CYP2C11 and CYP2B6 (AM + oe-CYP2C11&CYP2B6 group). The NC group received an equal volume of normal saline daily via oral gavage. The SC group was given an 18% sucrose solution (w/v) and an equal volume of normal saline instead of ethanol. The AM group started with a 5% ethanol concentration, increasing by 5% weekly to 40% while maintaining a constant 18% sucrose concentration (v/v). The plasmid vector for gene overexpression, pCMV6-AC-GFP (LM-2069, LMAI Bio, Shanghai, China), was used to construct CYP2C11 and CYP2B6 plasmids, which were developed by Sangon Biotech (Shanghai, China). After constructing the AM rat model, overexpression plasmids were transfected into lentiviruses via tail vein injection ([Liu et al., 2020]). The lentivirus injections (5 × 10^7 IU/rat) were administered twice, with a minimum interval of 2 days between injections, starting on day 7 after the initiation of sucrose treatment ([Ma et al., 2020]).
(§2) The daily ethanol and sucrose feeding volumes were weight-adjusted for the rats, approximately 20 mL per kilogram of body weight, and continued for 12 weeks. Weekly monitoring of rat weight, observation and recording of appetite, general health status including activity level, fur condition, and behavioral changes were documented. Daily feeding amounts were meticulously recorded to accurately adjust ethanol and sucrose solution volumes. After 12 weeks, the rats were euthanized by cervical dislocation following unconsciousness induced by carbon dioxide (CO₂) inhalation. Liver tissues were dissected and stored at −80°C for subsequent histological and molecular biology analyses. Blood samples were collected, and serum was separated by centrifugation (3,000 rpm, 4°C, 15 min) and stored at −80°C for future use.
Serum-related indicators were measured using commercial assay kits (BioSino Biotechnology and Science Inc., Beijing, China) following the manufacturer’s protocols. Specifically, serum samples, substrates, and buffer solutions were prepared according to the kit instructions. The reaction mixture was incubated at 37°C for 20 min, and absorbance was measured at 340 nm to record changes. Concentrations were calculated based on a standard curve ([Li et al., 2018]).

[2] = system: rat liver; conditions: AM group: oral ethanol 5% rising 5% weekly to 40% in 18% sucrose, about 20 mL/kg daily, 12 weeks; vs NC and SC groups
Procedure: as §1, with “The plasmid vector for gene overexpression, pCMV6-AC-GFP (LM-2069, LMAI Bio, Shanghai, China), was used to construct CYP2C11 and CYP2B6 plasmids, which were developed by Sangon Biotech (Shanghai, China). After constructing the AM rat model, overexpression plasmids were transfected into lentiviruses via tail vein injection ([Liu et al., 2020]). The lentivirus injections (5 × 10^7 IU/rat) were administered twice, with a minimum interval of 2 days between injections, starting on day 7 after the initiation of sucrose treatment ([Ma et al., 2020]).” left out
The daily ethanol and sucrose feeding volumes were weight-adjusted for the rats, approximately 20 mL per kilogram of body weight, and continued for 12 weeks. […] Daily feeding amounts were meticulously recorded to accurately adjust ethanol and sucrose solution volumes. […]

[3] = system: ROS; conditions: AM group, oral ethanol 12 weeks; vs NC and SC groups
Procedure: Reactive oxygen species (ROS) levels were detected using the fluorescent dye 2′,7′-dichlorodihydrofluorescein diacetate (DCF) (HY-D0940, Abcam, United Kingdom). […] Endothelial cells (2 × 10^4 cells) were seeded on coverslips in six-well plates and cultured overnight. The cells were treated with H2O2 (200 μM) the next day for 24 h. After treatment, the coverslips were washed with ice-cold Hank’s Balanced Salt Solution (HBSS) (H8264, Sigma Aldrich, Shanghai, China) and incubated with 100 μM DCFDA at 37°C for 30 min. After washing, the coverslips were mounted onto slides and imaged using a multiphoton confocal microscope (A1R, Nikon, United States) with a ×100 objective. Images were analyzed using Nikon Imaging Software NIS-Element.

[4] = for AUC0-∞ / Cmax / T1/2 / T1/2 el / Tmax / MRT / AUC0-L∞: oral, serum, final dosing after 12 weeks, mean; for AUC0-L∞: time zero to last measurable concentration
Procedure: Rats were administered orally with the same doses of normal saline and ethanol in the NC, SC, and AM groups, following the same method. After 12 weeks, blood samples were collected from the rats at specified time points (0.5, 1, 2, 4, 6, 8, and 12 h post-dosing) during the final dosing. The blood samples were centrifuged to separate serum and then stored at −80°C for further use.
Utilizing liquid chromatography-mass spectrometry (LC-MS) technology, the concentrations of ethanol and its metabolites in serum samples were analyzed. Analyze the pharmacokinetic parameters of the drug, such as the maximum plasma concentration (Cmax), the mean residence time (MRT) of ethanol in the body, and the bioavailability of ethanol. Data processing was conducted using specialized software XCMS, involving peak identification, integration, and normalization. Multivariate statistical analyses were performed on metabolite data to reveal metabolic differences between groups, such as principal component analysis (PCA) and orthogonal partial least squares discriminant analysis (OPLS-DA). Metabolites were annotated and compared with known databases (HMDB, METLIN) to confirm their identities. Differences in pharmacokinetic parameters among the NC, SC, and AM groups were compared to evaluate the effects of alcohol exposure and CYP450 enzymes, aiming to identify metabolite variances.

[5] = system: P-gp; conditions: AM group, oral ethanol 12 weeks
Procedure: as §1, §2
(§3) Liver samples were lysed using RIPA lysis buffer (P0013B, Beyotime, China). The total protein concentration was evaluated using the BCA protein assay kit (AR0146, Doctor’s Scientific Inc., China). SDS-PAGE was employed to separate total proteins, followed by protein transfer onto pre-wetted PVDF membranes with methanol (IPVH00010, Millipore Corp, United States). Non-specific protein blocking was carried out at room temperature for 3 h using TBST solution (BL315B, Boist, China) containing 5% milk. The target proteins were probed with primary antibodies overnight on […], followed by three washes with TBST/Tween 20 (0.075%) for 15 min each and subsequent incubation with labeled secondary antibodies for 1 h before washing. Protein visualization was performed using the Millipore Immobilon Western Chemiluminescent HRP substrate. The primary antibodies used in the experiments were polyclonal rabbit anti-human CYP450CYP1A2, 2B6, 2C11, 2C19, 2E1, 2D6, 3A1 (bs-20720R, Bioss, China) at a 1:300 dilution. The secondary antibodies, goat anti-mouse or anti-rabbit horseradish peroxidase conjugates, were diluted at 1:10,000 in TBST containing 5% milk. β-actin served as the loading control. The experiments were repeated three times.

[6] = system: ALDH2; conditions: AM group, oral ethanol 12 weeks
Procedure: as §1, §2, §3

[7] = system: CYP2E1; conditions: AM group, oral ethanol 12 weeks
Procedure: as §1, §2, §3

[8] = system: CYP2B6; conditions: AM group, oral ethanol 12 weeks
Procedure: as §1, §2, §3

[9] = system: CYP2C19; conditions: AM group, oral ethanol 12 weeks
Procedure: as §1, §2, §3

[10] = system: CYP3A1; conditions: AM group, oral ethanol 12 weeks; compared to NC and SC groups
Procedure: as §1, §2, §3

[11] = system: CYP2D6; conditions: AM group, oral ethanol 12 weeks
Procedure: as §1, §2, §3

[12] = system: CYP2C11; conditions: AM group, oral ethanol 12 weeks
Procedure: as §1, §2, §3

[13] = system: CYP1A2; conditions: AM group, oral ethanol 12 weeks
Procedure: as §1, §2, §3

[14] = system: CYP2D6 mRNA; conditions: AM group, oral ethanol 12 weeks; compared to NC and SC groups
Procedure: as §1, §2
(§4) Total RNA was extracted from rat liver tissue using TRIzol reagent (15596026, Invitrogen, United States). cDNA was synthesized using the cDNA synthesis kit (RR036A, Takara, Japan). Specific gene expression was detected by combining the PCR master mix (206143, Qiagen, United States) with the Pikoreal 96 real-time PCR system (QPCR-96X, Thermo Scientific, United States). Quantitative PCR analysis was performed for CYP450 enzyme-related genes with the endogenous gene β-actin as a reference, and the relative mRNA expression levels were quantified by calculating the 2^−ΔΔCt values. All experiments were repeated three times.

[15] = system: CYP1A2 mRNA; conditions: AM group, oral ethanol 12 weeks; compared to NC and SC groups
Procedure: as §1, §2, §4

[16] = system: CYP3A1 mRNA; conditions: AM group, oral ethanol 12 weeks; compared to NC and SC groups
Procedure: as §1, §2, §4

[17] = system: CYP2C11 mRNA; conditions: AM group, oral ethanol 12 weeks; compared to NC and SC groups
Procedure: as §1, §2, §4

[18] = system: CYP2E1 mRNA; conditions: AM group, oral ethanol 12 weeks; compared to NC and SC groups
Procedure: as §1, §2, §4

[19] = system: CYP2B6 mRNA; conditions: AM group, oral ethanol 12 weeks; compared to NC and SC groups
Procedure: as §1, §2, §4

[20] = system: CYP2E1; conditions: AM group, oral ethanol 12 weeks; compared to NC and SC groups
Procedure: as §1, §2
(§5) Rat liver microsomes were isolated using differential centrifugation. Each sample was mixed with 50 mM Tris-HCl buffer, homogenized, and then centrifuged at 10,000 × g for 30 min. The supernatant was centrifuged at 100,000 × g for 1 h using a high-speed centrifuge (Himac CP100WX, Hitachi, Japan).
(§6) The activities of CYP1A2, CYP2B6, CYP2C19, CYP2C11, CYP2E1, CYP2D6, and CYP3A1 were quantitatively determined using specific labeled substrates and an NADPH generation system containing 100 mM potassium phosphate buffer, 1 mM NADP (N1630, Sigma, United States), 10 mmol/L G-6-P (G7877, Sigma, United States), 0.1 U/mL G-6-PDH (G8529, Sigma, United States), and 5 mM MgCl2. The NADPH generation system was added to microsomes (total protein concentration of 1 mg/mL) with a total volume of 190 μL. Each reaction system was supplemented with 10 μL of substrate.

[21] = system: CYP2B6; conditions: AM group, oral ethanol 12 weeks; remark: listed apart in the source
Procedure: as §1, §2, §5, §6

[22] = system: CYP3A1; conditions: AM group, oral ethanol 12 weeks; compared to NC and SC groups; remark: listed apart in the source
Procedure: as §1, §2, §5, §6

[23] = system: CYP2D6; conditions: AM group, oral ethanol 12 weeks; compared to NC and SC groups
Procedure: as §1, §2, §5, §6

[24] = system: CYP2C11; conditions: AM group, oral ethanol 12 weeks; remark: listed apart in the source
Procedure: as §1, §2, §5, §6

[25] = system: CYP1A2; conditions: AM group, oral ethanol 12 weeks; compared to NC and SC groups
Procedure: as §1, §2, §5, §6

[26] = SC group (sucrose solution) rats
[27] = rat serum after long-term alcohol exposure
[28] = liver, β-actin loading control, single replicates

CCO [ethanol]
MDA level [1]: significantly increased | SOD level [1]: significantly decreased | serum ALT level [1]: significantly increased | serum AST level [1]: significantly increased | total cholesterol (TC) level [1]: significantly increased | triglyceride (TG) level [1]: significantly increased | liver histology (H&E) [2]: macrovesicular steatosis | intracellular ROS level [3]: significant increase | AUC0-∞ ([4]; AM group (alcohol intake) rats): 29120 ng·h/mL | Cmax ([4]; AM group (alcohol intake) rats): 2375 ng/mL | T1/2 ([4]; AM group (alcohol intake) rats): 2.88 h | T1/2 el ([4]; AM group (alcohol intake) rats): 17.04 h | Tmax ([4]; AM group (alcohol intake) rats): 4.76 h | MRT ([4]; AM group (alcohol intake) rats, p < 0.01 vs NC): 24.48 h | AUC0-L∞ ([4]; AM group (alcohol intake) rats): 27820 ng·h/mL | AUC0-∞ ([4]; NC group (normal control) rats): 22400 ng·h/mL | Cmax ([4]; NC group (normal control) rats): 1900 ng/mL | MRT ([4]; NC group (normal control) rats): 20.4 h | T1/2 ([4]; NC group (normal control) rats): 2.4 h | T1/2 el ([4]; NC group (normal control) rats): 14.2 h | Tmax ([4]; NC group (normal control) rats): 4.75 h | AUC0-L∞ ([4]; NC group (normal control) rats): 21400 ng·h/mL | Tmax, difference among the groups ([4]; NC, SC and AM groups, p > 0.05): no significant difference | AUC0-∞ [4, 26]: 21300 ng·h/mL | Cmax [4, 26]: 1890 ng/mL | MRT [4, 26]: 19.8 h | T1/2 [4, 26]: 2.35 h | T1/2 el [4, 26]: 13.5 h | Tmax [4, 26]: 4.68 h | AUC0-L∞, AM group vs other groups [4, 27]: significantly increased | AUC0-∞, AM group vs other groups [4, 27]: significantly increased | clearance, AM group vs other groups ([4]; rat, after long-term alcohol exposure): lower | P-gp protein expression, change [5]: significant increase | P-gp Relative protein expression [5, 28]: 1.61 and 1.33 and 1.52 | ALDH2 protein level, change ([6]; compared with NC and SC groups): increased | ALDH2 Relative protein expression [6, 28]: 1.34 and 1.48 and 1.49 | CYP2E1 protein expression, change ([7]; compared to NC and SC groups): higher | CYP2E1 Relative protein expression [7, 28]: 1.88 and 2.01 and 1.78 | CYP2B6 protein level, change ([8]; compared to NC and SC groups): significantly lower | CYP2B6 Relative protein expression [8, 28]: 0.28 and 0.3 and 0.29 | CYP2C19 protein expression, change ([9]; across all groups): no significant difference | CYP2C19 Relative protein expression [9, 28]: 1.22 and 1.39 and 1.27 | CYP3A1 protein expression, change [10]: higher | CYP2D6 protein expression, change ([11]; compared to NC and SC groups): higher | CYP2D6 Relative protein expression [11, 28]: 3.37 and 3.45 and 2.83 | CYP2C11 protein level, change ([12]; compared to NC and SC groups): significantly lower | CYP2C11 Relative protein expression [12, 28]: 0.76 and 0.74 and 0.78 | CYP1A2 protein expression, change ([13]; compared to NC and SC groups): higher | CYPIA2 Relative protein expression [13, 28]: 1.50 and 1.52 and 1.65 | CYP2D6 mRNA level in liver [14]: significantly higher | CYP1A2 mRNA level in liver [15]: significantly higher | CYP3A1 mRNA level in liver [16]: significantly higher | CYP2C11 mRNA level in liver [17]: significantly lower | CYP2E1 mRNA level in liver [18]: significantly higher | CYP2B6 mRNA level in liver [19]: significantly lower | CYP2E1 enzyme activity in liver microsomes [20]: significantly increased | CYP2B6 enzyme activity in liver microsomes [21]: notable decreases | CYP3A1 enzyme activity in liver microsomes [22]: significantly increased | CYP2D6 enzyme activity in liver microsomes [23]: significantly increased | CYP2C11 enzyme activity in liver microsomes [24]: notable decreases | CYP1A2 enzyme activity in liver microsomes [25]: significantly increased
